Data on 19 molecules can be found in PubChem BioAssay (NCI).

SMILES strings stand for the structures. “And” between values parts separate entries of the source, which are not always exact repeats. Identical values can stand only once.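 Results reflect a 48-hour exposure of cells in 96-well plates to compound at five concentrations. The concentration for 50% growth inhibition is given as GI50. TGI: total growth inhibition.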 Where only a bound is given, the exact number is not on record here.

The subject of the first assay is U251 CNS. The assay is described as follows: NCI-60 cell line screen, 48 h.
On to `Cc1nc(C(N)=S)sc1/C(CC(=O)C(=O)Nc1cccc2ccc(O)cc12)=N\NC(=O)c1ccncc1`, for which the TGI was more than 100 µM.

In the case of `CN1CCN([C@H]2C[C@H]3[C@@H]4CC=C5C[C@@H](O)CC[C@]5(C)[C@H]4CC[C@]3(C)C2=O)CC1`, the TGI was more than 100 µM.

The molecule `C=C(C1=CC(=O)C(C)(C)O1)[C@@H]1CC=C([C@@H]2CC[C@H]3[C@@]2(C)CC[C@H]2C(C)(C)C(=O)[C@H](O)C[C@]32C)[C@H](O)O1` displayed a TGI of 3.06 µM.

`C(/c1ccco1)=c1/nc(-c2ccccc2)n2c1nc1ccccc12` gave a TGI of more than 100 µM.

The molecule `CCNC(=S)N/N=C/c1cc([N+](=O)[O-])ccc1O` yielded a TGI of more than 100 µM.

`Cc1cc(O)c2c(=O)c3ccccc3[nH]c2c1` had a TGI of more than 100 µM.

The molecule `Oc1cccc2c(Cl)ccnc12` showed a TGI of 22 µM.

In turn, `Clc1cc(OC2C3CC4CC(C3)CC2C4)nc(Cl)n1` (centres undefined) gave a TGI of 31.9 µM.

`Cc1cccc2c(=O)cc(-c3ccccc3)[nH]c12` yielded a TGI of more than 100 µM.

The molecule `COc1cc([C@@H]2c3cc4c(cc3[C@@H](Nc3ccc([N+](=O)[O-])cc3C(=O)c3ccccc3)[C@H]3COC(=O)[C@H]23)OCO4)cc(OC)c1OC` returned a TGI of more than 100 µM.

For the molecule `CCN(CC)CCC(=O)Nc1ccc2c(c1)C(=O)c1ccc(NC(=O)CCN(CC)CC)cc1C2=O`, the TGI was found to be 21.2 µM.

`COc1nc(N)c(C(=O)CCl)c(=O)n1C` yielded a TGI of 29.9 µM.

`COc1ccc2c(=O)c(O)c(-c3ccc(OC)c(OC)c3)oc2c1` yielded a TGI of more than 100 µM.

The test system of a further assay is OVCAR-3 ovarian. The assay is described as follows: NCI-60 cell line screen, 48 h.
In the case of `C[C@@]12C[C@@H](c3ccccc3O1)N1CCCCSC1=N2`, the TGI is more than 100 µM.

The molecule `C=C1c2nc3ccccc3n2C=C(c2ccccc2)N1c1ccc([N+](=O)[O-])cc1` had a TGI of 60.2 µM.

`C[C@]12CC[C@H](O)CC1=CC[C@@H]1C2CC[C@]2(C)C(=O)N(N)C(=O)CC12` (some centres undefined) came in with a TGI of more than 100 µM.

In the case of `Cc1c2cnccc2c(C)c2c1c1ccccc1n2CCCN`, the GI50 is 0.721 µM and 0.251 µM; the TGI was 1.84 µM and 0.833 µM.

As to `O=c1[nH][nH]c(=O)n1Cc1ccccc1Cn1c(=O)[nH][nH]c1=O`, the TGI is more than 100 µM.

`O=C(NNC(=O)c1ccccc1SSc1ccccc1C(=O)NNC(=O)c1ccccc1S)c1ccccc1S` yielded a TGI of more than 100 µM.

Take `Cc1nc(C(N)=S)sc1/C(CC(=O)C(=O)Nc1cccc2ccc(O)cc12)=N\NC(=O)c1ccncc1`: the TGI was more than 100 µM.

Turning to `CN1CCN([C@H]2C[C@H]3[C@@H]4CC=C5C[C@@H](O)CC[C@]5(C)[C@H]4CC[C@]3(C)C2=O)CC1`, the TGI is more than 100 µM.

`C=C(C1=CC(=O)C(C)(C)O1)[C@@H]1CC=C([C@@H]2CC[C@H]3[C@@]2(C)CC[C@H]2C(C)(C)C(=O)[C@H](O)C[C@]32C)[C@H](O)O1` showed a TGI of 2.4 µM.

Molecule `C(/c1ccco1)=c1/nc(-c2ccccc2)n2c1nc1ccccc12` showed a TGI of more than 100 µM.

With `Cc1cc(O)c2c(=O)c3ccccc3[nH]c2c1`, the TGI is more than 100 µM.

For the molecule `Oc1cccc2c(Cl)ccnc12`, the TGI amounted to 3.19 µM.

The molecule `Clc1cc(OC2C3CC4CC(C3)CC2C4)nc(Cl)n1` (centres undefined) yielded a TGI of 35.2 µM.

For the molecule `Cc1cccc2c(=O)cc(-c3ccccc3)[nH]c12`, the TGI is more than 100 µM.

As for `COc1cc([C@@H]2c3cc4c(cc3[C@@H](Nc3ccc([N+](=O)[O-])cc3C(=O)c3ccccc3)[C@H]3COC(=O)[C@H]23)OCO4)cc(OC)c1OC`, the TGI was more than 100 µM.

For the molecule `COc1ccc2c(=O)c(O)c(-c3ccc(OC)c(OC)c3)oc2c1`, the TGI is 11.9 µM.

In a further assay the test system is SK-MEL-5 melanoma. The assay is described as follows: NCI-60 cell line screen, 48 h.
For the molecule `C[C@@]12C[C@@H](c3ccccc3O1)N1CCCCSC1=N2`, the TGI was more than 100 µM.

Molecule `C=C1c2nc3ccccc3n2C=C(c2ccccc2)N1c1ccc([N+](=O)[O-])cc1` returned a TGI of 40.8 µM.

With `C[C@]12CC[C@H](O)CC1=CC[C@@H]1C2CC[C@]2(C)C(=O)N(N)C(=O)CC12` (some centres undefined), the TGI is more than 100 µM.

On to `Cc1c2cnccc2c(C)c2c1c1ccccc1n2CCCN`, for which the GI50 is 1.01 µM; the TGI is 1.44 µM and 2.17 µM.

Molecule `O=c1[nH][nH]c(=O)n1Cc1ccccc1Cn1c(=O)[nH][nH]c1=O` returned a TGI of more than 100 µM.

As to `O=C(NNC(=O)c1ccccc1SSc1ccccc1C(=O)NNC(=O)c1ccccc1S)c1ccccc1S`, the TGI was more than 100 µM.

`Cc1nc(C(N)=S)sc1/C(CC(=O)C(=O)Nc1cccc2ccc(O)cc12)=N\NC(=O)c1ccncc1`: the TGI is more than 100 µM.

With `CN1CCN([C@H]2C[C@H]3[C@@H]4CC=C5C[C@@H](O)CC[C@]5(C)[C@H]4CC[C@]3(C)C2=O)CC1`, the TGI is more than 100 µM.

For the molecule `C=C(C1=CC(=O)C(C)(C)O1)[C@@H]1CC=C([C@@H]2CC[C@H]3[C@@]2(C)CC[C@H]2C(C)(C)C(=O)[C@H](O)C[C@]32C)[C@H](O)O1`, the TGI is 24.1 µM.

With `C(/c1ccco1)=c1/nc(-c2ccccc2)n2c1nc1ccccc12`, the TGI is more than 100 µM.

In turn, `CCNC(=S)N/N=C/c1cc([N+](=O)[O-])ccc1O` displayed a TGI of more than 100 µM.

With `Cc1cc(O)c2c(=O)c3ccccc3[nH]c2c1`, the TGI was found to be 31.1 µM.

The molecule `Oc1cccc2c(Cl)ccnc12` registered a TGI of 14.8 µM.

As to `Clc1cc(OC2C3CC4CC(C3)CC2C4)nc(Cl)n1` (centres undefined), the TGI was determined as 32.1 µM.

The molecule `Cc1cccc2c(=O)cc(-c3ccccc3)[nH]c12` registered a TGI of 78.4 µM.

Consider `CCN(CC)CCC(=O)Nc1ccc2c(c1)C(=O)c1ccc(NC(=O)CCN(CC)CC)cc1C2=O`, for which the TGI turned out to be 19.8 µM.

In the case of `COc1nc(N)c(C(=O)CCl)c(=O)n1C`, the TGI stood at 28.5 µM.

For `COc1ccc2c(=O)c(O)c(-c3ccc(OC)c(OC)c3)oc2c1`, the TGI was more than 100 µM.
